Among the data in patent US8357694B2, “Substituted 5,6-dihydro-6-phenylbenzo[F]isoquinolin-2-amine compounds” (ArQule, Inc., priority 2008, dated 2013) are IC50 and melting point values, retold here.

Where a name gives a salt, the structure may show the parent alone.

The target in the first series is T1, FGFR2 kinase (Homo sapiens, UniProt P21802, N549H).
T1 construct: purchased Millipore 14-742
T1 sequence (P21802 456-770 N549H limits assumed): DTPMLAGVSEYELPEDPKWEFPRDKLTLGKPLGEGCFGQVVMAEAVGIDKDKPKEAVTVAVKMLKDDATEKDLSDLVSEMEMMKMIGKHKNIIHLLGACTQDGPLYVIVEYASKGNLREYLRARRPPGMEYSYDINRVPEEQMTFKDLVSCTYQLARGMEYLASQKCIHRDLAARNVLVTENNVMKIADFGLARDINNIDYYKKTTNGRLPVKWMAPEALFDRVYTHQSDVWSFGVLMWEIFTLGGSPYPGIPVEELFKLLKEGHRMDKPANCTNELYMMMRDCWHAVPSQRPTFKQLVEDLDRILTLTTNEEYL
Put plainly: fluorescent ELISA FGFR2 kinase assay (biochemical). The settings on record: FGFR2 (N549H); read-out: Biochemical data (IC50-μM) FGFR2 (N549H). How it is done:
The enzymatic assays described herein are conducted according to the following procedures from commercially available reagents. In one, non limiting, example, a fluorescent ELISA assay is used to identify and characterize inhibitors of FGFR2 kinase as described herein. This heterogeneous assay utilizes a biotinylated peptide with a tyrosine motif as a substrate and an anti-phospho-tyrosine antibody to measure phosphorylation of the substrate. […] The reaction is incubated for 60 minutes. As the reaction proceeds, FGFR2 phosphorylates tyrosines in the peptide. […] Peptides are captured for 30 minutes at room temperature, the phosphorylation of peptides continues during this phase. The reaction is stopped by washing the streptavidin-coated plate 6 times with TBST. […] Unbound anti-phospho-tyrosine antibody is removed by washing the streptavidin-coated plate 6 times with TBST. […] Unbound secondary antibody is removed by washing the streptavidin-coated plate 6 times with TBST.
In general terms: In an ELISA, binding on a coated surface is turned into a signal by an enzyme label.
As usually defined, the IC50 is the concentration that inhibits the measured activity by half. For `CCCCN(C)CCc1ccc(Nc2ncc3c(n2)-c2ccccc2[C@@H](c2ccc(Br)cc2)C3)cc1` [Example 107, (R)-6-(4-bromophenyl)-N-(4-(2-(butyl(methyl)amino)ethyl)phenyl)-5,6-dihydrobenzo[h]quinazolin-2-amine hydrochloride salt], the IC50 amounted to 0.423 µM.

As for `OCCc1cc(Nc2ncc3c(n2)-c2ccccc2[C@H](c2ccccc2F)C3)ccc1F` [Example 169], the IC50 is 0.327 µM. Same read-out and setting: as for `CCCCN(C)CCc1cc(Nc2ncc3c(n2)-c2ccccc2[C@H](c2ccccc2F)C3)ccc1F` [Example 172, (R)-N-(3-(2-(butyl(methyl)amino)ethyl)-4-fluorophenyl)-6-(2-fluorophenyl)-5,6-dihydrobenzo[h]quinazolin-2-amine hydrochloride salt], the figure is 0.0922 µM; as for `CCCCNCCc1cc(Nc2ncc3c(n2)-c2ccccc2[C@H](c2ccccc2F)C3)ccc1F` [Example 171, (R)-N-(3-(2-(butylamino)ethyl)-4-fluorophenyl)-6-(2-fluorophenyl)-5,6-dihydrobenzo[h]quinazolin-2-amine hydrochloride salt], 0.0355 µM. On to `Brc1ccc([C@H]2Cc3cnc(Nc4ccc(CCN5CCCCC5)cc4)nc3-c3ccccc32)cc1` [Example 108, (R)-6-(4-bromophenyl)-N-(4-(2-(piperidin-1-yl)ethyl)phenyl)-5,6-dihydrobenzo[h]quinazolin-2-amine hydrochloride salt], for which the IC50 is 0.354 µM. The same measure, in the same setting: as for `OCc1cccc(Nc2ncc3c(n2)-c2ccccc2[C@H](c2ccccc2F)C3)c1` [Example 176, (R)-(3-(6-(2-fluorophenyl)-5,6-dihydrobenzo[h]quinazolin-2-ylamino)phenyl)methanol], the figure is 0.109 µM.

The subject of another series is SNU-16. Put plainly: MTS assay, SNU-16. The settings on record: Homo sapiens, SNU-16, SNU-16; read-out: MTS cell kill data (IC50-μM) SNU-16. It is filed as cell-based.
Description: Cells were maintained at 37° C., 5% CO2 in DMEM media supplemented with 1% fetal bovine serum, penicillin/streptomycin and fungizone (Invitrogen). Cells were seeded into 96-well tissue culture plates at 3000 per well and cultured at 37° C. for 18 hours. Test compounds were dissolved and diluted to 300× in DMSO then diluted 1:40 in DMEM.
For `CN(C)CCc1ccc(Nc2ncc3c(n2)-c2ccccc2[C@H](c2ccc(F)c(F)c2)C3)cc1` [Example 87, (S)-6-(3,4-difluorophenyl)-N-(4-(2-(dimethylamino)ethyl)phenyl)-5,6-dihydrobenzo[h]quinazolin-2-amine hydrochloride], the IC50 came out at 7.78 µM.

As for `COCCN1CCN(CCc2ccc(Nc3ncc4c(n3)-c3ccccc3[C@H](c3ccc(Br)cc3)C4)cc2)CC1` [Example 97, (S)-6-(4-bromophenyl)-N-(4-(2-(4-(2-methoxyethyl)piperazin-1-yl)ethyl)phenyl)-5,6-dihydrobenzo[h]quinazolin-2-amine hydrochloride salt], the IC50 turned out to be 4.2 µM. `CCCCN(C)CCc1ccc(Nc2ncc3c(n2)-c2ccccc2[C@H](c2ccc(F)cc2)C3)cc1` [Example 99, (S)-N-(4-(2-(butyl(methyl)amino)ethyl)phenyl)-6-(4-fluorophenyl)-5,6-dihydrobenzo[h]quinazolin-2-amine]: the IC50 stood at 6.16 µM. On the same count and under the same terms, the same measure for `CN(CCc1ccc(Nc2ncc3c(n2)-c2ccccc2[C@H](c2ccc(Cl)c(Cl)c2)C3)cc1)C1CCCCC1` [Example 106, (S)-N-(4-(2-(cyclohexyl(methyl)amino)ethyl)phenyl)-6-(3,4-dichlorophenyl)-5,6-dihydrobenzo[h]quinazolin-2-amine hydrochloride salt]: 3.05 µM; for `Clc1ccc([C@@H]2Cc3cnc(Nc4cccc(CCN5CCCCC5)c4)nc3-c3ccccc32)cc1Cl` [Example 167, (S)-6-(3,4-dichlorophenyl)-N-(3-(2-(piperidin-1-yl)ethyl)phenyl)-5,6-dihydrobenzo[h]quinazolin-2-amine hydrochloride]: 4.21 µM. In the case of `Brc1cccc([C@@H]2Cc3cnc(Nc4ccc(CCN5CCCCC5)cc4)nc3-c3ccccc32)c1` [Example 78, (S)-6-(3-bromophenyl)-N-(4-(2-(piperidin-1-yl)ethyl)phenyl)-5,6-dihydrobenzo[h]quinazolin-2-amine hydrochloride], the IC50 was 4.85 µM. Still for that read-out and setting: as for `COCCN1CCN(CCc2ccc(Nc3ncc4c(n3)-c3ccccc3[C@@H](c3ccc(F)c(F)c3)C4)cc2)CC1` [Example 90, (R)-6-(3,4-difluorophenyl)-N-(4-(2-(4-(2-methoxyethyl)piperazin-1-yl)ethyl)phenyl)-5,6-dihydrobenzo[h]quinazolin-2-amine hydrochloride], the figure is 14.6 µM. The same measure, in the same setting: as for `CN1CCN(CCc2ccc(Nc3ncc4c(n3)-c3ccccc3[C@H](c3ccc(F)c(F)c3)C4)cc2)CC1` [Example 88, (S)-6-(3,4-difluorophenyl)-N-(4-(2-(4-methylpiperazin-1-yl)ethyl)phenyl)-5,6-dihydrobenzo[h]quinazolin-2-amine hydrochloride], the figure is 9.86 µM; as for `Fc1ccc([C@H]2Cc3cnc(Nc4ccc(CCN5CCCCC5)cc4)nc3-c3ccccc32)cc1F` [Example 91, (R)-6-(3,4-difluorophenyl)-N-(4-(2-(piperidin-1-yl)ethyl)phenyl)-5,6-dihydrobenzo[h]quinazolin-2-amine hydrochloride], 6.32 µM. The same measure, in the same setting: as for `CN(CCc1ccc(Nc2ncc3c(n2)-c2ccccc2[C@H](c2ccc(F)c(F)c2)C3)cc1)C1CCCCC1` [Example 85, (S)-N-(4-(2-(cyclohexyl(methyl)amino)ethyl)phenyl)-6-(3,4-difluorophenyl)-5,6-dihydrobenzo[h]quinazolin-2-amine hydrochloride], the figure is 3.88 µM.

Turning to `COCCN1CCN(CCc2ccc(Nc3ncc4c(n3)-c3ccccc3[C@H](c3ccc(F)cc3)C4)cc2)CC1` [Example 100, (S)-6-(4-fluorophenyl)-N-(4-(2-(4-(2-methoxyethyl)piperazin-1-yl)ethyl)phenyl)-5,6-dihydrobenzo[h]quinazolin-2-amine], the IC50 was 7.36 µM.

Tested on in the next series: not given
Assay: not given
Conditions: not given
In general, melting point refers to the temperature of the solid-liquid transition. With `OCc1cccc(Nc2ncc3c(n2)-c2ccccc2[C@H](c2ccccc2F)C3)c1` [Example 176, (R)-(3-(6-(2-fluorophenyl)-5,6-dihydrobenzo[h]quinazolin-2-ylamino)phenyl)methanol], the melting point fell in the range of 158 to 159 °C. The compound `COCCN1CCN(CCc2ccc(Nc3ncc4c(n3)-c3ccccc3[C@H](c3ccc(F)cc3)C4)cc2)CC1` [Example 100, (S)-6-(4-fluorophenyl)-N-(4-(2-(4-(2-methoxyethyl)piperazin-1-yl)ethyl)phenyl)-5,6-dihydrobenzo[h]quinazolin-2-amine] returned a melting point of 195 to 198 °C. Same read-out and setting: as for `Brc1ccc([C@@H]2Cc3cnc(Nc4ccc(CCN5CCCCC5)cc4)nc3-c3ccccc32)cc1` (as salt: hydrochloride) [Example 103, (S)-6-(4-bromophenyl)-N-(4-(2-(piperidin-1-yl)ethyl)phenyl)-5,6-dihydrobenzo[h]quinazolin-2-amine hydrochloride salt], the figure is 205 to 210 °C; as for `CN(CCc1ccc(Nc2ncc3c(n2)-c2ccccc2C(c2ccc(F)c(F)c2)C3)cc1)C1CCCCC1` (centres unmarked) (as salt: hydrochloride) [Example 60, N-(4-(2-(cyclohexyl(methyl)amino)ethyl)phenyl)-6-(3,4-difluorophenyl)-5,6-dihydrobenzo[h]quinazolin-2-amine], 107 to 114 °C. `Clc1ccc(C2Cc3cnc(Nc4ccc(CCN5CCCCC5)cc4)nc3-c3ccccc32)cc1Cl` (centres unmarked) had a melting point of 181 to 183 °C. Same read-out and setting: the same measure for `OCCc1ccc(Nc2ncc3c(n2)-c2ccccc2C(c2ccc(Cl)c(Cl)c2)C3)cc1` (centres unmarked): 94 to 96 °C. Still for that read-out and setting: as for `CN(CCc1ccc(Nc2ncc3c(n2)-c2ccccc2[C@H](c2ccc(F)cc2)C3)cc1)C1CCCCC1` [Example 102, (S)—N-(4-(2-(cyclohexyl(methyl)amino)ethyl)phenyl)-6-(4-fluorophenyl)-5,6-dihydrobenzo[h]quinazolin-2-amine], the figure is 160 to 162 °C.

In the case of `CCCCN(C)CCc1ccc(Nc2ncc3c(n2)-c2ccccc2C(c2ccc(Cl)cc2)C3)cc1` (centres unmarked) (as salt: hydrochloride), the melting point is 145 to 150 °C. Same read-out and setting: as for `COCCN1CCN(CCc2ccc(Nc3ncc4c(n3)-c3ccccc3C(c3ccccc3)C4)cc2)CC1` (centres unmarked) [Example 65, N-(4-(2-(4-(2-methoxyethyl)piperazin-1-yl)ethyl)phenyl)-6-phenyl-5,6-dihydrobenzo[h]quinazolin-2-amine], the figure is 52 to 54 °C.
